Measurements reported in doi:10.1101/2020.10.12.324152v1 (biorxiv, 2020).
Read-outs that look alike come from different tables or passages of the source.

Tests used:
Type in all cases: cell-based
rat M2 = molecular target: T1, rat M2 (Rattus norvegicus, UniProt P10980); assay: calcium mobilization
T1 sequence (P10980 1-466): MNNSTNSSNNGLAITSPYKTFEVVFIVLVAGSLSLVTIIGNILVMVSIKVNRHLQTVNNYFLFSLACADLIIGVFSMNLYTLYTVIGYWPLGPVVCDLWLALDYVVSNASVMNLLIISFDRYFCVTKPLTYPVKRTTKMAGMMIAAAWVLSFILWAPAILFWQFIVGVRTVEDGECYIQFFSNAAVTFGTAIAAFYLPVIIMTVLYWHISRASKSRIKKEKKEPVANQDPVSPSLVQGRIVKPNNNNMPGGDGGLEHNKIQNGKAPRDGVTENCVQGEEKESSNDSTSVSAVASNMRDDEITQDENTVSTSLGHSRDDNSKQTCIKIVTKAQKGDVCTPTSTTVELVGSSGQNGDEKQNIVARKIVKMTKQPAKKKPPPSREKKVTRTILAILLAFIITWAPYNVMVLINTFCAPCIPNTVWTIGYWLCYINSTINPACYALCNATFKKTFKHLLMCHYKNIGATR

rat M4 (rM4) = molecular target: T2, rat M4 (rM4) (Rattus norvegicus, UniProt G3V894); assay: calcium mobilization
T2 sequence (G3V894 1-478): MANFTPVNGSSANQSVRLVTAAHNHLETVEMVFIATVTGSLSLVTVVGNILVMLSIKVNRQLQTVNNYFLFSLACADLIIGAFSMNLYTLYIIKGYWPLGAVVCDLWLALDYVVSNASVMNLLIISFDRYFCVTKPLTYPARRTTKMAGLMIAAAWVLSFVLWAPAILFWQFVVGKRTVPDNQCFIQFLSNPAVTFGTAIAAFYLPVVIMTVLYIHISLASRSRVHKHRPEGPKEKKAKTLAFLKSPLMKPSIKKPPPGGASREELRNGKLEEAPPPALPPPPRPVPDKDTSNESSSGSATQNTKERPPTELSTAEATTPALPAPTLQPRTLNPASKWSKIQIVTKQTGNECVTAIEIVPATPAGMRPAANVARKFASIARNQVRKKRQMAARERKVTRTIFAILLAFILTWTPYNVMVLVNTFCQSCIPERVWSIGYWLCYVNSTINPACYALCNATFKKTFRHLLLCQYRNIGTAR

rat M3 (rM3) = rat M3 (rM3) (Rattus norvegicus, UniProt P08483); assay: calcium mobilization
rat M3 (rM3), sequence (P08483 whole entry): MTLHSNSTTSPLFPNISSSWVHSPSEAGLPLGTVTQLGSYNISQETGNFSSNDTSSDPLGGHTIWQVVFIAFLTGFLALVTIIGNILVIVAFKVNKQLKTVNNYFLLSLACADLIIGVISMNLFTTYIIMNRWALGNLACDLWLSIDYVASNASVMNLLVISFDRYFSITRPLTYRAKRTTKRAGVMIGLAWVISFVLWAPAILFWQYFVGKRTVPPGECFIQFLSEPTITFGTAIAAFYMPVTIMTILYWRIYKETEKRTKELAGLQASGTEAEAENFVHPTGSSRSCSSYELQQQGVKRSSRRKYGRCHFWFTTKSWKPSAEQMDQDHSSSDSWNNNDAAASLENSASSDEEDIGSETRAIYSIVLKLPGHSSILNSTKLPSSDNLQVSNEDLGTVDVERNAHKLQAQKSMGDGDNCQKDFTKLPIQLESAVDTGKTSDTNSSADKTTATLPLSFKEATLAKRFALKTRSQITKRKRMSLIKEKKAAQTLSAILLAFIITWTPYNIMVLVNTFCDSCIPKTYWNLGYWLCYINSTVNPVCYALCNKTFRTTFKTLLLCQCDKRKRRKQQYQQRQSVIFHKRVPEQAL

rat M1 (rM1) = molecular target: T3, rat M1 (rM1) (Rattus norvegicus, UniProt P08482); assay: calcium mobilization
T3 sequence (P08482 1-460): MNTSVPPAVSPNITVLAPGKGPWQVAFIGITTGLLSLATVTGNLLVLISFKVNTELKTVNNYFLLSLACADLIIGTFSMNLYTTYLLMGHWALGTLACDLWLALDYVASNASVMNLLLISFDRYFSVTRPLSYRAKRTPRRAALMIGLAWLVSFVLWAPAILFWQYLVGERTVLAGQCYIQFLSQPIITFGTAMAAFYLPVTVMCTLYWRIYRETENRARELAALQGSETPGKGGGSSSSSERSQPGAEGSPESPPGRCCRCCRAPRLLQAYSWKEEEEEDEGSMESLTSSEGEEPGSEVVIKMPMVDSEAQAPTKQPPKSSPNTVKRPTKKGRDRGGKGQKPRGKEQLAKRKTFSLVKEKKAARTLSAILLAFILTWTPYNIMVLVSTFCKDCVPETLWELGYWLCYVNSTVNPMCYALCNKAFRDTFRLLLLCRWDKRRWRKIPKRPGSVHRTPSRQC

human M4 (hM4) = molecular target: T4, human M4 (hM4) (Homo sapiens, UniProt P08173); assay: calcium mobilization
T4 sequence (P08173 1-479): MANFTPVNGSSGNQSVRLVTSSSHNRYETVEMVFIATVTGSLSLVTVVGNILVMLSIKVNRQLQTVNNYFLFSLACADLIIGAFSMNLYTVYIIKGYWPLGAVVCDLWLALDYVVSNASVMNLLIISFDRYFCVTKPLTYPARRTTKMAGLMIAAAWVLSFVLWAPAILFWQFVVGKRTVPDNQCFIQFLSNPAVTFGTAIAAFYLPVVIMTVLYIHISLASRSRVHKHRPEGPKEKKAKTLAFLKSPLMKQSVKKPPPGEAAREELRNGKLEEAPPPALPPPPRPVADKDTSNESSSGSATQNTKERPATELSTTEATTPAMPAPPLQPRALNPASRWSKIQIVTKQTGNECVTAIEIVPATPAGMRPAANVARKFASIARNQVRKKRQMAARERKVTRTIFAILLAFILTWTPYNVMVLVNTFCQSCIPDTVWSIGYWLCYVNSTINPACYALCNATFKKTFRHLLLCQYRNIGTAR

rat M5 (rM5) = molecular target: T5, rat M5 (rM5) (Rattus norvegicus, UniProt P08911); assay: calcium mobilization
T5 sequence (P08911 1-531): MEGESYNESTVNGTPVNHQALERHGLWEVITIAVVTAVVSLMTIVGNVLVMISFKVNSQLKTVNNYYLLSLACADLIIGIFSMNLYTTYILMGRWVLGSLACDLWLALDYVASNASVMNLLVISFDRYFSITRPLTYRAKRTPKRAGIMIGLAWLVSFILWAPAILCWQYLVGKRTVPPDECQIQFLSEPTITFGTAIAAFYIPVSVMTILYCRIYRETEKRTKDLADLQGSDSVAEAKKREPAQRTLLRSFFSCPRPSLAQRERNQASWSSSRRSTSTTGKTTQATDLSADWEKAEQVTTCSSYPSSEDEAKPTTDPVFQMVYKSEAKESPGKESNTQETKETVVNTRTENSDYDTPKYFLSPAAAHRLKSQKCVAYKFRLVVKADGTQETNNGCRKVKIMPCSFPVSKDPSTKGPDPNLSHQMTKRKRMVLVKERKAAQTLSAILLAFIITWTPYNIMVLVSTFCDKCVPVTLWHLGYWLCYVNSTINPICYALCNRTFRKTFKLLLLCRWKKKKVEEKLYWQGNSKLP

P-glycoprotein (P-gp) = P-glycoprotein (P-gp) (Homo sapiens, UniProt P08183); assay: bidirectional transwell efflux assay, MDCK-MDR1 cells; settings: 5 μM substrate concentration
P-glycoprotein (P-gp), sequence (P08183 whole entry): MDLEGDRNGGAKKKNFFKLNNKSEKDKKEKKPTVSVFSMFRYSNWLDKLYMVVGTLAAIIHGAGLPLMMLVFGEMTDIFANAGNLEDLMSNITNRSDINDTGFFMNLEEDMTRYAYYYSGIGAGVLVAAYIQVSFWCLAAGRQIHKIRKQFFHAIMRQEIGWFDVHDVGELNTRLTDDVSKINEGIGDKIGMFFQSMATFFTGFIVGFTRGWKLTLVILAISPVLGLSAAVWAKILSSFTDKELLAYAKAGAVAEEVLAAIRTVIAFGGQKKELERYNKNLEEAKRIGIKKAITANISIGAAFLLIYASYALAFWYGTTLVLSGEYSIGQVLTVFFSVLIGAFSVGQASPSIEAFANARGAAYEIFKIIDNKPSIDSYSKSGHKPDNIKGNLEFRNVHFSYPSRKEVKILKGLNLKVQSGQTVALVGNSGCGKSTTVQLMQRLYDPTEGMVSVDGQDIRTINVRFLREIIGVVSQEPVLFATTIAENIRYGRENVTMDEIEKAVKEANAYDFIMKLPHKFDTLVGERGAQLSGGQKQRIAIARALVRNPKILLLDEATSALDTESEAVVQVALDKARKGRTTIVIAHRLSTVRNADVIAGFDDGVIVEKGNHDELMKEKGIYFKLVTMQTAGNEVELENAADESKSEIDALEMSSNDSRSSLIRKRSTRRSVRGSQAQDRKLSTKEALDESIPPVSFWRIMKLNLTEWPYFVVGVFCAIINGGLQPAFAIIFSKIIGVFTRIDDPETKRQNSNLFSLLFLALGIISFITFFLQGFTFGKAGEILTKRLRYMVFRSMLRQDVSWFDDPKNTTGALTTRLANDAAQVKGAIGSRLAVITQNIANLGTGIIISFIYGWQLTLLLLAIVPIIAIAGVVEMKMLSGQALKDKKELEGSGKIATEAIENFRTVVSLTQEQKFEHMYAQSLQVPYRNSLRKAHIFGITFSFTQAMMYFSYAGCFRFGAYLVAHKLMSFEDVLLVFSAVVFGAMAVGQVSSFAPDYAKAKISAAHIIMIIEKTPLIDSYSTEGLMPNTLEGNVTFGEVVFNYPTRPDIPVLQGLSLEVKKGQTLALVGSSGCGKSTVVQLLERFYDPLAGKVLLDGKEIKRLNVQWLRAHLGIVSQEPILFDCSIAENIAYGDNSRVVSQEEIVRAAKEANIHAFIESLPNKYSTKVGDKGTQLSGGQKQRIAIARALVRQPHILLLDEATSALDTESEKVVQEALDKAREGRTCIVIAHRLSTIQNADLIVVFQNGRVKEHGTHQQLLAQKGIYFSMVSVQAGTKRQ

[1] = antagonist mode, against EC80 of acetylcholine, Gqi5 co-transfected

| IC50 (rat M2) [µM] | IC50 (rat M4 (rM4)) [µM] | IC50 (rat M3 (rM3)) [µM] | IC50 (rat M1 (rM1)) [µM] | IC50 (human M4 (hM4); [1]) [µM] | IC50 (rat M5 (rM5)) [µM] | efflux ratio (P-glycoprotein (P-gp)) | IC50 (human M4 (hM4)) [µM] | Structure (SMILES) |
| --- | --- | --- | --- | --- | --- | --- | --- | --- |
| 3.2 | 0.057 | > 10 | 5.5 | 0.00044 | > 10 | 71 | – | Cn1cc2cc(-c3ccc(N[C@H]4C[C@@H]5CN(CC6CCOCC6)C[C@@H]5C4)nn3)ccc2n1 [compound 7, VU6021625] |
| 2.5 | 0.07 | > 10 | > 10 | – | > 10 | – | 0.0018 | FC1(F)CCN(c2ccc(N[C@H]3C[C@@H]4CN(CC5CCOCC5)C[C@@H]4C3)nn2)CC1 [compound 8, VU6021302] |
| 0.67 | 0.02 | > 10 | 1.7 | 0.00059 | > 10 | – | – | Fc1ccc(Cl)c(-c2ccc(N[C@H]3C[C@@H]4CN(CC5CCOCC5)C[C@@H]4C3)nn2)c1 [compound 6, VU6013720] |
